Eleven molecules from US8093250B2, “2-aminocarbonyl-pyridine derivatives” (Actelion Pharmaceuticals Ltd., priority 2006, dated 2012) can be followed below.

The structures appear in SMILES notation. pIC50: −log10 of the molar value.

For orientation: pIC50 means the IC50 on a negative log10 scale, so that one unit is a factor of ten.

For this assay, the target named is T1, human P2Y12 receptor (Homo sapiens, UniProt Q9H244).
T1 construct: expressed in transfected cells; host or cells: Chinese Hamster Ovary (CHO) cells
T1 sequence (Q9H244 whole entry): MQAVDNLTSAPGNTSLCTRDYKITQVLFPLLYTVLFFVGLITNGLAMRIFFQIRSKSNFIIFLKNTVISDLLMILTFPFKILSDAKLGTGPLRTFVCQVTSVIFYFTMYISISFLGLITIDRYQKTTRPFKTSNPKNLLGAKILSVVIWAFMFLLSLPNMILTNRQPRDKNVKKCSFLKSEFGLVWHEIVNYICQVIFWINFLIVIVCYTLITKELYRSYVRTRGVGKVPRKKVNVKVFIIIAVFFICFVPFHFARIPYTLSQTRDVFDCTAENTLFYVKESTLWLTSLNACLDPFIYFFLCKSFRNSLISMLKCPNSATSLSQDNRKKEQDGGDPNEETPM
In words: P2Y12 receptor binding assay. As to conditions: CHO cells with recombinant human P2Y12 receptor; tritium-labeled 2-methyl-S-ADP; 2 hours at RT. How it is done:
Chinese Hamster Ovary (CHO) cells with recombinant expression of the human P2Y12 receptor were cultured in 24 well cell-culture plates. Cells were washed three times with binding buffer (50 mM Tris pH 7.4, 100 mM NaCl, 1 mM EDTA, 0.5% BSA). The cells were then incubated with 0.5 ml per well binding buffer containing tritium-labeled 2-methyl-thio-adenosine 5′-diphosphate (2-methyl-S-ADP) (between 100'000 and 300'000 dpm per well) and various concentrations of test compounds. After incubation at RT for 2 hours, cells were washed three times with binding buffer. Then, cells were solubilized by addition of 0.5 ml solubilization buffer (SDS, NaOH, EDTA). The content of each well was then transferred into beta-counter vials and 2.0 ml of Ultima Gold Scintillation liquid was added.
As for `CCOC(=O)N1CCN(C(=O)[C@H](CCC(=O)O)NC(=O)c2cc(Cl)cc(-c3ccccc3)n2)CC1` [Example 1, 4-{(S)-4-carboxy-2-[(4-chloro-6-phenyl-pyridine-2-carbonyl)-amino]-butyryl}-piperazine-1-carboxylic acid ethyl ester], the pIC50 was 7.47.

Consider `CCOC(=O)N1CCN(C(=O)[C@H](CO)NC(=O)c2cc(-c3ccccc3)cc(-c3ccccc3)n2)CC1` [Example 24, 4-{(S)-2-[(4,6-diphenyl-pyridine-2-carbonyl)-amino]-3-hydroxy-propionyl}-piperazine-1-carboxylic acid ethyl ester], for which the pIC50 is 6.69.

In the case of `CCOC(=O)N1CCN(C(=O)[C@H](CCC(=O)O)NC(=O)c2cc(CCC(C)(C)O)cc(-c3ccccc3)n2)CC1` [Example 28, 4-((S)-4-carboxy-2-{[4-(3-hydroxy-3-methyl-butyl)-6-phenyl-pyridine-2-carbonyl]-amino}-butyryl)-piperazine-1-carboxylic acid ethyl ester], the pIC50 is 7.02.

As for `CCOC(=O)N1CCN(C(=O)[C@H](CCC(=O)O)NC(=O)c2cc(-c3ccsc3)cc(-c3ccccc3)n2)CC1` [Example 32, 4-{(S)-4-carboxy-2-[(6-phenyl-4-thiophen-3-yl-pyridine-2-carbonyl)-amino]-butyryl}-piperazine-1-carboxylic acid ethyl ester], the pIC50 is 7.17.

For `CCOC(=O)N1CCN(C(=O)[C@H](CCC(=O)O)NC(=O)c2cc(OC3CCOC3)cc(-c3ccccc3)n2)CC1` (stereo partly drawn) [Example 37, 4-((S)-4-carboxy-2-{[6-phenyl-4-(tetrahydro-furan-3-yloxy)-pyridine-2-carbonyl]-amino}-butyryl)-piperazine-1-carboxylic acid ethyl ester], the negative logarithm of the IC50 (pIC50) was 7.03.

In the case of `CCOC(=O)N1CCN(C(=O)[C@H](CCC(=O)OC(C)(C)C)NC(=O)c2cc(Cl)cc(-c3ccccc3)n2)CC1` [Example 39, 4-{(S)-4-O-tert-butoxycarbonyl-2-[(4-chloro-6-phenyl-pyridine-2-carbonyl)-amino]-butyryl}-piperazine-1-carboxylic acid ethyl ester], the pIC50 was 5.67.

With `CCOC(=O)N1CCN(C(=O)[C@H](Cc2nn[nH]n2)NC(=O)c2cc(-c3ccccc3)cc(-c3ccccc3)n2)CC1` [Example 66, 4-[(S)-2-[(4,6-diphenyl-pyridine-2-carbonyl)-amino]-3-(2H-tetrazol-5-yl)-propionyl]-piperazine-1-carboxylic acid ethyl ester], the pIC50 is 7.40.

Consider `CCCCOC(=O)N1CCN(C(=O)[C@@H](NC(=O)c2cc(N3CC[C@H](OC)C3)cc(-c3ccccc3)n2)C(C)C)CC1` [Example 69, 4-((S)-2-{[4-((S)-3-methoxy-pyrrolidin-1-yl)-6-phenyl-pyridine-2-carbonyl]-amino}-3-methyl-butyryl)-piperazine-1-carboxylic acid butyl ester], for which the negative logarithm of the IC50 (pIC50) was 6.96.

Consider `CCOC(=O)N1CCN(C(=O)[C@H](CCC(=O)O)NC(=O)c2nc(-c3ccccc3)cc(C3CC3)c2OC)CC1` [Example 71, 4-{(S)-4-carboxy-2-[(4-cyclopropyl-3-methoxy-6-phenyl-pyridine-2-carbonyl)-amino]-butyryl}-piperazine-1-carboxylic acid ethyl ester], for which the pIC50 is 6.29.

Turning to `CCCCOC(=O)N1CCN(C(=O)[C@H](CCC(=O)OC(C)(C)C)NC(=O)c2cc(N3CC[C@H](OC)C3)cc(-c3ccccc3)n2)CC1` [Example 72, 4-((S)-4-tert-butoxycarbonyl-2-{[4-((S)-3-methoxy-pyrrolidin-1-yl)-6-phenyl-pyridine-2-carbonyl]-amino}-butyryl)-piperazine-1-carboxylic acid butyl ester], the pIC50 is 5.75.

With `CCCCNc1cc(C(=O)N[C@@H](CCC(=O)O)C(=O)N2CCN(C(=O)OCC)CC2)nc(-c2ccccc2)c1F` [Example 75, 4-{(S)-2-[(4-butylamino-5-fluoro-6-phenyl-pyridine-2-carbonyl)-amino]-4-carboxy-butyryl}-piperazine-1-carboxylic acid ethyl ester], the negative logarithm of the IC50 (pIC50) is 6.41.
